# Data published in patent US20190055517A1, “Cell Line of M2c Macrophage and Its Applications” (National Pingtung University of Science and Technology, priority 2017, published 2019).
# How the values were obtained:
# murine M2 macrophage [1] = assay: Macrophage cell morphology under microscope; format: cell-based; details: versus M-CSF control and comparison 2, FIG. 4
# Procedure: (§1) Embodiment 1 is prepared by the steps described above, isolate monocytes from murine bone marrow and use M-CSF to induce differentiation of M2 macrophage, and then use baicalin to induce M2C macrophage polarization. In comparison 1, incubate murine M2 macrophage in RPMI 1640 (10% FCS) containing LPS (lipopolysaccharide, 1 μg/ml, Sigma-Aldrich) for 2 hours. In comparison 2, incubate murine M2 macrophage in medium containing IL-4 ([…] Guidance System, Cambridge, UK) for 24 hours. The control group of M2 macrophage is incubated in RPMI 1640 (10% FCS) without any drugs. The conditions are shown below in chart 2.
# (§2) FIG. 2˜4 show results of macrophage phenotypes analysed by flow cytometry.
# murine M2 macrophage [2] = assay: mRNA expression level of each gene by real time PCR (qPCR) after induced differentiation; format: cell-based; details: for IL-6 mRNA expression level: conditions of chart 2, FIG. 6
# Procedure: as §1
# (§3) After induced differentiation is complete, use flow cytometry to analyse the macrophage phenotype, in the meantime, also use real time PCR (qPCR) to observe mRNA expression level of each gene.
# TNF-Alpha: M1 macrophage expression gene IRF5: M1 macrophage polarization promoting gene IRF4: M2 macrophage polarization promoting gene ARG1 (Arginase-1): M2a macrophage molecular marker IL-10: cytokine that promotes M2 macrophage polarization and inhibits inflammation IL-6: cytokine that promotes inflammation and also serves as M2b macrophage molecular marker. MERTK: a gene that serves as M2C macrophage molecular marker and promotes phagocytosis PTX3: a gene that serves as M2C macrophage molecular marker and promotes phagocytosis VEGF-A: vascular endothelial growth factor PD-L1: a gene that regulates T cell and promotes tissue autoimmune tolerance
# [3] = test system: M1 and M2 macrophage derived from Raw264.7 cell line; assay: mRNA expression of VEGF family, VEGF receptor and PD-L1 by RT-qPCR in Raw264.7 derived macrophages; format: cell-based, murine
# Procedure: In this example, experiment was performed to observe if baicalin can induce expression of VEGF family and PD-L1 in M1 and M2 macrophage derived from Raw264.7 cell line (ATCC, USA). M1 macrophage obtained from treating Raw264.7 macrophage with LPS (1 μg/ml, Sigma-Aldrich) for 2 hours, and M0 macrophage (control group) cultured in simple RPMI 1640 (10% FCS) medium, are respectively cultured in RPMI 1640 (10% FCS) medium with either Baicalin (50 μM, Tokyo Chemical Industry, Japan) or […] (10 ng/ml, Cell Guidance System, Cambridge, UK). Collect the cells after 24/48/72 hours of cell culturing. Then observe the mRNA expression level of VEGF family, VEGF receptor and PD-L1 using reverse transcription-real time PCR (RT-qPCR).
# murine M2 macrophage [4] = assay: Phagocytosis of FITC-Latex beads with PE-anti-MERTK staining (flow cytometry, fluorescence microscopy); format: cell-based
# Procedure: In this example, experiment was performed to evaluate the effect of baicalin induced differentiated […] macrophages in promoting phagocytosis. Treatment conditions of drugs in each group is listed in chart 2, and control group is cultured in RPMI1640 (10% FCS) without any drugs. After treatment, collect 5×10^5 treated cells respectively and add 50 μl FITC-Latex beads (Phagocytosis assay kit (IgG FITC), Cayman Chemical, USA.) to perform phagocytosis experiment for 24 hours, and then use PE-anti-MERTK antibody to mark the cells and observe the fluorescence expression with flow cytometry.
# murine M2 macrophage [5] = assay: Macrophage surface protein MERTK expression by flow cytometry; format: cell-based; details: versus control, LPS and IL-4 groups, p<0.05, FIG. 15
# Procedure: as §1
# In this example, experiment was performed to further test whether M2C treated by baicalin can express MERTK protein. Using flow cytometry to evaluate macrophage surface protein MERTK expression level in embodiment 1, comparison 1, 2, and the control group is cultured in RPMI 1640 (10% FCS) without any drugs. Result was shown in FIG. 14, after fluorescence staining, fluorescence MERTK marker binding was detected in approximately 80% of cells in every group. […] M2C cells treated with baicalin can promote macrophages to express MERTK protein, and the efficacy is greater than LPS and IL-4.
# Raw264.7 macrophages = assay: VEGF-A protein in conditioned medium by ELISA; format: cell-based, murine; details: baicalin 50 μM, 48 hours, p<0.05, FIG. 13
# Procedure: In this example, experiment was performed to further examine whether […] cells treated with baicalin will express VEGF-A protein. Add LPS (1 μg/ml), baicalin (50 μM) and IL-4 (10 ng/ml) respectively to medium culturing […]; Raw264.7 macrophages (ATCC, USA) and culture for 48 hours. Collect the conditioned medium and quantify VEGF-A protein by EUSA (Mouse VEGF EUSA Kit, Code: EK0541, BosterBio, CA, USA). Control group is cultured in the medium (90% DMEM+10% FBS) without any mentioned drugs. […] […] macrophage treated with baicalin can promote macrophage to secrete VEGF-A protein and the efficacy is greater than IL-4.
# murine M2 macrophage [6] = assay: Macrophage phenotype by flow cytometry (CD86, CD206) after drug-induced differentiation; format: cell-based; details: conditions of chart 2, p<0.05, FIG. 3
# Procedure: Use PBS containing 0.5% BSA to flush out bone marrow cells from murine (C57BL/6J, 8-20 weeks, Taiwan National Laboratory Animal Center) femur, then use Ficoll-Hypaque (GE healthcare, SWEDEN) to isolate monocytes.
# Then, incubate 2×10^6 monocytes in 50 ng/ml M-CSF contained RPMI 1640 (10% FCS) medium under 37° c., 5% CO2 for seven days to induce M2 macrophage polarization. On the eighth day, collect 2×10^5 M2 macrophage and incubate them in RPMI 1640 (10% FCS) medium with Baicalin (50 μM, Tokyo Chemical Industry, JAPAN) for 24 hours. Baicalin will induce M2 macrophage to differentiate into M2C macrophage.
# as §1, §3, §2
# [7] = conditions of chart 2, P<0.05, FIG. 7 and FIG. 8
# [8] = conditions of chart 2, p<0.05, FIG. 5
# [9] = baicalin 50 μM, 24/48/72 hours, versus groups without baicalin, FIG. 10
# [10] = versus IL-4 treated group, same treatment duration, p<0.05, FIG. 11
smiles,measurement,setting,value
O=C(O)[C@H]1O[C@@H](Oc2cc3oc(-c4ccccc4)cc(=O)c3c(O)c2O)[C@H](O)[C@@H](O)[C@@H]1O [Baicalin],morphology of macrophages,murine M2 macrophage [1],ellipse instead of spindle shaped
same,IL-6 mRNA expression level,murine M2 macrophage [2],significantly lower than comparison 1
same,IL-6 mRNA expression level,murine M2 macrophage [2]; listed as embodiment 1,low
same,IL-10 mRNA expression level,"murine M2 macrophage [2]; conditions of chart 2, P<0.05, FIG. 6",significantly higher than comparison 1 and 2
same,MERTK mRNA expression level,murine M2 macrophage [2]; [7],"significantly higher than control, comparison 1 and 2"
same,PD-L1 mRNA expression level,murine M2 macrophage [2]; [7],"significantly higher than control, comparison 1 and 2"
same,PTX3 mRNA expression level,murine M2 macrophage [2]; [7],"significantly higher than control, comparison 1 and 2"
same,VEGF-A mRNA expression level,murine M2 macrophage [2]; [7],"significantly higher than control, comparison 1 and 2"
same,IRF4 mRNA expression level,murine M2 macrophage [2]; [8],significantly lower than comparison 2
same,IRF5 mRNA expression level,murine M2 macrophage [2]; [8],significantly lower than comparison 1
same,TNF-Alpha mRNA expression level,murine M2 macrophage [2]; [8],significantly lower than comparison 1
same,ARG1 mRNA expression level,"murine M2 macrophage [2]; conditions of chart 2, p<0.05, FIG. 6",significantly lower than comparison 2
same,VEGF-A mRNA expression level,"[3]; baicalin 50 μM, 24/48/72 hours, versus M1, M2 macrophages without baicalin treatment (LPS, control), FIG. 9",higher
same,VEGFR-1 mRNA expression level,[3]; [9],higher
same,VEGFR-2 mRNA expression level,[3]; [9],higher
same,VEGF-A mRNA expression level,[3]; [10],significantly higher
same,VEGFR1 mRNA expression level,[3]; [10],significantly higher
same,VEGFR2 mRNA expression level,[3]; [10],significantly higher
same,PD-L1 mRNA expression level,"[3]; versus M1, M2 macrophages without baicalin treatment, p<0.05, FIG. 12",higher
same,percentage of cells that phagocytosed the beads,"murine M2 macrophage [4]; FITC-Latex beads 24 hours, FIG. 16",approximately 30%
same,percentage of cells that phagocytosed beads and also express MERTK protein,"murine M2 macrophage [4]; FITC-Latex beads 24 hours, PE-anti-MERTK, FIG. 17",30%
same,MERTK fluorescence distribution of cells after phagocytosing FITC-Latex beads,"murine M2 macrophage [4]; fluorescence microscope, PE-MERTK, FIG. 18",express MERTK on cell membrane
same,average MERTK expression level in one single cell (mean fluorescence intensity),murine M2 macrophage [5],two times higher
same,VEGF-A protein detected in conditioned medium,Raw264.7 macrophages,higher than control group and other groups treated with other drugs
same,percentage of cells expressing CD86 and CD206,murine M2 macrophage [6],lower than both comparison 1 and 2
